Experimental findings from US9359351B2, “Cap/endo dual inhibitors and their use in the treatment, amelioration or prevention of a viral disease” (priority 2014, dated 2016) are described below.

In experiment [1] the target is T1, influenza A virus (IAV) PA-Nter fragment (amino acids 1-209) (Influenza A virus, UniProt P31343).
T1 construct: PA-Nter fragment (amino acids 1-209); made in house
The experiment is described as follows: biochemical. The following applies: FRET IC50.

The target in experiment [2] is PB2 cap binding domain (CBD) of an avian H5N1 influenza virus (Influenza A virus, UniProt Q9Q0V1). The experiment is described as follows: biochemical. The following applies: Biacore KD.
PB2 cap binding domain (CBD) of an avian H5N1 influenza virus, sequence (Q9Q0V1 318-483 limits assumed): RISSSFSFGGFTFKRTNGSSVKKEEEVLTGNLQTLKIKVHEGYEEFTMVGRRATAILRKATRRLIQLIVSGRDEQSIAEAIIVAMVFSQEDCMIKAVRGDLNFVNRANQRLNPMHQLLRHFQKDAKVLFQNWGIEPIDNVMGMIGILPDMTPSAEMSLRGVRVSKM
Experiment [3] deals with influenza A virus (IAV) A/Aichi/2/68 (H3N2). The experiment is described as follows: microbe, parasite or virus in culture. Type of experiment: cell-based, influenza A virus A/Aichi/2/68 (H3N2) on MDCK cells. Particulars: H3N2, MDCK; for IC50: 48 h, read-out: CPE IC50; for inhibition at 50 µM: read-out: CPE % inhib.
The target in experiment [4] is whole RNP complex, IAV strain A/PR/8/34 (Influenza A virus, UniProt P03428+P03433). The experiment is described as follows: biochemical.

Broadly, the IC50 is the concentration needed to halve the response being measured. As usually defined, the Kd is a measure of binding affinity in units of concentration. Read a low Kd as tighter binding. `CC(C)N1CCn2c(CNC(=O)c3cccc(NC(=O)c4ccc5n[nH]c(=O)n5c4)c3)cc(=O)c(O)c2C1=O`: the IC50 in experiment [1] came to 1.66 µM; in experiment [3] it was 35.1 µM. Also, the affinity in experiment [2], expressed as Kd, was 21.9 µM.
In the case of `CC(C)N1CCn2c(CNC(=O)[C@@H](Cc3cccc(Cl)c3)NC(=O)c3ccc4n[nH]c(=O)n4c3)cc(=O)c(O)c2C1=O`, the IC50 came out at 2.88 µM in experiment [1] and 51.7 µM in experiment [3]. This compound displayed a Kd in experiment [2] above 100 µM.
For `CC(C)N1CCn2c(CNC(=O)[C@H]3CCC[C@@H](Nc4nc(-c5n[nH]c6ncc(F)cc56)ncc4F)C3)cc(=O)c(O)c2C1=O`, the 50% inhibitory concentration (IC50) in experiment [1] was above 25 µM; in experiment [3], 15.1 µM.
For the compound `CC(C)N1CCn2c(CNCCOC(=O)c3cccn4c(=O)[nH]nc34)cc(=O)c(O)c2C1=O`, the values for the half-inhibitory concentration (IC50) in experiment [1] and in experiment [3] were 1.41 µM and above 50 µM, respectively. For the same compound, in experiment [2], the equilibrium dissociation constant (Kd) was above 100 µM.
On the same counts, the results for `CC(C)N1CCn2c(CNc3nccc4[nH]ncc34)cc(=O)c(O)c2C1=O` are 0.4 µM, above 50 µM and above 100 µM.
On the same counts, the results for `CC(C)N1CCn2c(CNC(=O)c3ccc4n[nH]c(=O)n4c3)cc(=O)c(O)c2C1=O` are 0.87 µM, above 50 µM and 187 µM.
For `CC(C)N1CCn2c(COC(=O)c3c[nH]c4ncc(C5CC5)nc34)cc(=O)c(O)c2C1=O` the same measures were 0.49 µM, 68.7 µM and 9.3 µM.
`CCC(NC(=O)c1c[nH]c2ncc(C3CC3)nc12)C(=O)NCc1cc(=O)c(O)c2n1CCN(C(C)C)C2=O` (stereo not shown): the figures for the IC50 in experiment [1] and in experiment [3] were 0.46 µM and above 50 µM, respectively.
Take `CC(C)N1CCn2c(CNC(=O)c3cccc(NC(=O)c4n[nH]c5ncccc45)c3)cc(=O)c(O)c2C1=O` [drawing 28]: the figures for the concentration for half-maximal inhibition (IC50) in experiment [1] and in experiment [3] were 1.51 µM and above 50 µM, respectively. In experiment [2], the affinity, expressed as Kd, was 26.3 µM.
As to `CC(C)N1CCn2c(CNC(=O)CCCCCNc3nc(-c4n[nH]c5ncc(F)cc45)ncc3F)cc(=O)c(O)c2C1=O`, the IC50 in experiment [1] was found to be 19.7 µM; in experiment [3] it was 15 µM. Moreover, the Kd in experiment [2] was found to be 0.42 µM.
For `CC(C)[C@H](NC(=O)c1c[nH]c2ncc(C3CC3)nc12)C(=O)NCc1cc(=O)c(O)c2n1CCN(C(C)C)C2=O` the same measures were 0.75 µM, 42 µM and 16.8 µM.
For `CCC(NC(=O)c1cccn2c(=O)[nH]nc12)C(=O)NCc1cc(=O)c(O)c2n1CCN(C(C)C)C2=O` (stereo not shown) the same measures were 0.43 µM, above 50 µM and 6.3 µM.
On the same counts, the results for `CC(C)N1CCn2c(CNC(=O)[C@H](NC(=O)c3ccc4n[nH]c(=O)n4c3)c3ccccc3)cc(=O)c(O)c2C1=O` are 1.45 µM, above 50 µM and above 100 µM.
With `CC(C)N1CCn2c(CNC(=O)C[C@H](NC(=O)c3c[nH]c4ncc(C5CC5)nc34)c3ccccc3)cc(=O)c(O)c2C1=O`, the IC50 in experiment [4] is 1.53 µM; in experiment [3], above 33.7 µM.
`CC(C)N1CCn2c(CNC(=O)CNC(=O)c3c[nH]c4ncc(C5CC5)nc34)cc(=O)c(O)c2C1=O`: the IC50 in experiment [1] is 0.27 µM; in experiment [3], above 50 µM. The same compound yielded an equilibrium dissociation constant (Kd) in experiment [2] of 3.96 µM.
As to `CC(C)N1CCn2c(CNC(=O)CC(Nc3nc(-c4n[nH]c5ncc(F)cc45)ncc3F)C3CC3)cc(=O)c(O)c2C1=O` (stereo not shown), the concentration for half-maximal inhibition (IC50) in experiment [1] was determined as 19.7 µM; in experiment [3], 48 µM. The compound also displayed a Kd in experiment [2] of 8.16 µM.
On the same counts, the results for `CC(C)[C@H](Nc1nc(-c2n[nH]c3ncc(F)cc23)ncc1F)C(=O)NCc1cc(=O)c(O)c2n1CCN(C(C)C)C2=O` are 8.04 µM, above 50 µM and 10 µM.
Turning to `CC(C)N1CCn2c(CNC(=O)[C@H](NC(=O)c3c[nH]c4ncc(C5CC5)nc34)C3CC3)cc(=O)c(O)c2C1=O`, 0.22 µM corresponded to half-maximal inhibition in experiment [4] (IC50). For the same compound, the inhibition at 50 µM in experiment [3] turned out to be 47%.
Regarding `CC(C)N1CCn2c(CNC(=O)C3(NC(=O)c4c[nH]c5ncc(C6CC6)nc45)CCCCC3)cc(=O)c(O)c2C1=O`, the concentration for half-maximal inhibition (IC50) is 0.38 µM in experiment [4] and above 50 µM in experiment [3].
As to `CC(C)N1CCn2c(CNC(=O)CCCCCNc3nc(C4=CN5C(=O)N=NC5C=C4)ncc3F)cc(=O)c(O)c2C1=O` (stereo not shown), the half-inhibitory concentration (IC50) in experiment [4] was 5.35 µM; in experiment [3] it was above 25 µM.
Consider `CC(C)N1CCn2c(CNC(=O)c3cccn4c(=O)[nH]nc34)cc(=O)c(O)c2C1=O`, for which the figures for the half-maximal inhibitory concentration (IC50) in experiment [1] and in experiment [3] were 0.28 µM and above 50 µM, respectively. For the same compound, the equilibrium dissociation constant (Kd) in experiment [2] is above 50 µM.
For the compound `CC(C)N1CCn2c(CNC(=O)c3c[nH]c4ncc(C5CC5)nc34)cc(=O)c(O)c2C1=O`, the results for the IC50 in experiment [1] and in experiment [3] were 0.87 µM and above 25 µM, respectively. In experiment [2], binding was characterised by a dissociation constant (Kd) of 12.8 µM.
In experiment [4], `CC(C)N1CCn2c(CNC(=O)CC(NC(=O)c3c[nH]c4ncc(C5CC5)nc34)C3CC3)cc(=O)c(O)c2C1=O` (stereo not shown) gave an IC50 of 0.14 µM. The inhibition at 50 µM in experiment [3] amounted to 10%.
In the case of `CC(C)N1CCn2c(CNC(=O)c3n[nH]c4ncccc34)cc(=O)c(O)c2C1=O`, the 50% inhibitory concentration (IC50) is 0.4 µM in experiment [1] and above 50 µM in experiment [3]. In experiment [2], the dissociation constant (Kd) is above 100 µM.
Consider `CC(C)N1CCn2c(CNC(=O)[C@@H](Cc3cccc(Cl)c3)NC(=O)c3n[nH]c4ncccc34)cc(=O)c(O)c2C1=O`, for which the 50% inhibitory concentration (IC50) in experiment [1] is 1.09 µM; in experiment [3] it was above 50 µM. For the same compound, binding in experiment [2] was put at a Kd of 55.1 µM.
For `CC(C)N1CCn2c(COC(=O)c3cccn4c(=O)[nH]nc34)cc(=O)c(O)c2C1=O` the same measures were 0.41 µM, above 50 µM and above 100 µM.
On to `CC(C)N1CCn2c(CNc3cc4[nH]ncc4c(Cl)n3)cc(=O)c(O)c2C1=O`, for which the IC50 is 0.848 µM in experiment [1] and above 50 µM in experiment [3]. The compound also showed a Kd in experiment [2] of 305 µM.
On to `CC(C)N1CCn2c(CNC(=O)CNC(=O)c3ccc4n[nH]c(=O)n4c3)cc(=O)c(O)c2C1=O`, for which the concentration for half-maximal inhibition (IC50) in experiment [1] is 1.94 µM; in experiment [3], above 50 µM. The equilibrium dissociation constant (Kd) in experiment [2] is 14.1 µM.
For `CC(C)N1CCn2c(CNCCNc3nccc4[nH]ncc34)cc(=O)c(O)c2C1=O`, the IC50 in experiment [1] was 1.46 µM; in experiment [3] it was above 50 µM.
In experiment [1], `CC(C)N1CCn2c(CNC(=O)c3cccc(NC(=O)c4n[nH]c5ncccc45)c3)cc(=O)c(O)c2C1=O` [drawing 29] displayed an IC50 of 1.22 µM. The affinity in experiment [2], expressed as Kd, was 19.6 µM.
Take `CC(C)N1CCn2c(CNC(=O)CCCCCNC(=O)c3c[nH]c4ncc(C5CC5)nc34)cc(=O)c(O)c2C1=O`: the IC50 in experiment [1] was 0.57 µM; in experiment [3], 31.8 µM. This compound also displayed an equilibrium dissociation constant (Kd) in experiment [2] of 6.36 µM.
Consider `CC(C)N1CCn2c(COCCOc3nccc4[nH]ncc34)cc(=O)c(O)c2C1=O`, for which the concentration for half-maximal inhibition (IC50) in experiment [1] was 0.37 µM; in experiment [3] it was above 50 µM. For the same compound, the equilibrium dissociation constant (Kd) in experiment [2] is above 100 µM.
For the compound `CCC(Nc1nc(-c2n[nH]c3ncc(F)cc23)ncc1F)C(=O)NCc1cc(=O)c(O)c2n1CCN(C(C)C)C2=O` (stereo not shown), the IC50 in experiment [1] was 12.2 µM; in experiment [3], above 50 µM.
Take `CC(C)N1CCn2c(CNc3cccc4n[nH]c(=O)n34)cc(=O)c(O)c2C1=O`: the half-inhibitory concentration (IC50) in experiment [1] was 0.936 µM; in experiment [3], above 50 µM. Also, the equilibrium dissociation constant (Kd) in experiment [2] is 99.3 µM.
On to `CC(C)[C@H](Nc1nc(C2=CN3C(=O)N=NC3C=C2)ncc1F)C(=O)NCc1cc(=O)c(O)c2n1CCN(C(C)C)C2=O` (stereo partly shown), for which the concentration for half-maximal inhibition (IC50) in experiment [4] and in experiment [3] was above 50 µM each time.
With `CC(C)N1CCn2c(CNC(=O)[C@H](Cc3cccc(Cl)c3)NC(=O)c3cccn4c(=O)[nH]nc34)cc(=O)c(O)c2C1=O`, the half-inhibitory concentration (IC50) in experiment [1] came out at 0.291 µM; in experiment [3] it was 31.2 µM. The Kd in experiment [2] amounted to 475 µM.
For the compound `CC(C)N1CCn2c(CNC(=O)[C@H](NC(=O)c3cccn4c(=O)[nH]nc34)c3ccccc3)cc(=O)c(O)c2C1=O`, the IC50 is 9.87 µM in experiment [1] and above 50 µM in experiment [3]. Also, the Kd in experiment [2] is above 100 µM.
Regarding `CC(C)N1CCn2c(CNC(=O)[C@H](NC(=O)c3c[nH]c4ncc(C5CC5)nc34)c3ccccc3)cc(=O)c(O)c2C1=O`, the IC50 in experiment [1] came out at 2.34 µM; in experiment [3], 8.2 µM.
As to `CC(C)[C@H](NC(=O)c1cccn2c(=O)[nH]nc12)c1cc(=O)c(O)c2n1CCN(C(C)C)C2=O`, the IC50 was 0.83 µM in experiment [1] and above 50 µM in experiment [3]. Further, binding in experiment [2] was characterised by a dissociation constant (Kd) of 163 µM.
As to `CC(C)N1CCn2c(CNCCNc3cc4[nH]ccc4c(Cl)n3)cc(=O)c(O)c2C1=O`, the 50% inhibitory concentration (IC50) was 0.58 µM in experiment [1] and above 50 µM in experiment [3].
As for `CC(C)N1CCn2c(CNC(=O)C3(NC(=O)c4cccn5c(=O)[nH]nc45)CCCCC3)cc(=O)c(O)c2C1=O`, the values for the concentration for half-maximal inhibition (IC50) in experiment [1] and in experiment [3] were 2.84 µM and above 50 µM, respectively. The compound further came in with a Kd in experiment [2] above 25 µM.
For `CC(C)N1CCn2c(CNC(=O)c3cccc(Nc4nccc5[nH]ncc45)c3)cc(=O)c(O)c2C1=O`, the half-inhibitory concentration (IC50) in experiment [1] turned out to be 0.55 µM; in experiment [3], 21.8 µM. This compound yielded a Kd in experiment [2] of 97.6 µM.
As for `CC(C)[C@@H](CC(=O)NCc1cc(=O)c(O)c2n1CCN(C(C)C)C2=O)Nc1nc(C2=CN3C(=O)N=NC3C=C2)ncc1F` (stereo partly shown), the results for the half-inhibitory concentration (IC50) in experiment [4] and in experiment [3] were 8.15 µM and above 1.28 µM, respectively.
